Results reported in ChEMBL document CHEMBL4706552, “Discovery of 4-methyl-N-(4-((4-methylpiperazin- 1-yl)methyl)-3-(trifluoromethyl)phenyl)-3-((6-(pyridin-3-yl)-1H-pyrazolo[3,4-d]pyrimidin-4-yl)-oxy)benzamide as a potent inhibitor of RET and its gatekeeper mutant” (Eur J Med Chem, 2020).
Calls of active or inactive are those of the source. The calls are words filed in the database; no cut-off is given here.

Legend:
[1] = molecular target: T1, Kinesin-1 heavy chain/ Tyrosine-protein kinase receptor RET (Homo sapiens) (UniProt P07949+P33176); assay: Inhibition of KIF5B-RET fusion protein (unknown origin) expressed in mouse BaF3 cells assessed as reduction in cell proliferation measured after 48 hrs by MTS assay; format: cell-based
T1 sequence (P07949 29-1114 limits assumed): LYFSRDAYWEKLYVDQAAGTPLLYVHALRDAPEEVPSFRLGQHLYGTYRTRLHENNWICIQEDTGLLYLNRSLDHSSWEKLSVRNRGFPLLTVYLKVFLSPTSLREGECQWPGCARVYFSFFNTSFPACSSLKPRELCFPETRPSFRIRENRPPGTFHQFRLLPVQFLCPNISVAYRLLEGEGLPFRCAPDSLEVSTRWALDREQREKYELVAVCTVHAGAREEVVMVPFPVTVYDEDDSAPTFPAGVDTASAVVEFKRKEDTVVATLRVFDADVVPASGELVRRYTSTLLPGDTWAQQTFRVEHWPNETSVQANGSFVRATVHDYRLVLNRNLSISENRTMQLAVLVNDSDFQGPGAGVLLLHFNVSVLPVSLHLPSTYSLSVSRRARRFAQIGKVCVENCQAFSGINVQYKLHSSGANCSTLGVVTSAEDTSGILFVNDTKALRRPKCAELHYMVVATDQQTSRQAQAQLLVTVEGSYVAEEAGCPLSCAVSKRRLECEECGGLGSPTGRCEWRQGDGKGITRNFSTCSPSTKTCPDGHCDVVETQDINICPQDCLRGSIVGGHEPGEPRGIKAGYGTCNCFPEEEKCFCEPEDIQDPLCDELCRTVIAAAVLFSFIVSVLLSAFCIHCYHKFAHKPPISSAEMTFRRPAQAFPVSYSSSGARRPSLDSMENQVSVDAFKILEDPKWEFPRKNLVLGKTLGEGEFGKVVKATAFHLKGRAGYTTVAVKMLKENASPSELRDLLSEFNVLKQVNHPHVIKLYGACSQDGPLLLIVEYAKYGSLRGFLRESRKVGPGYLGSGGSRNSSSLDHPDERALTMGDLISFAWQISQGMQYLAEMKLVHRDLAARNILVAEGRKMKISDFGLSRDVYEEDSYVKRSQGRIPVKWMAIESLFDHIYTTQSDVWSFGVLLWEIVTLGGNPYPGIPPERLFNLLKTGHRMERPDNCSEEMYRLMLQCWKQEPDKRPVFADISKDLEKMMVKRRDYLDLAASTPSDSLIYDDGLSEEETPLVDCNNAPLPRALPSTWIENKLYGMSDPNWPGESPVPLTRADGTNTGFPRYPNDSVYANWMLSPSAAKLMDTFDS
T1 sequence (P33176 2-963 partner limits assumed): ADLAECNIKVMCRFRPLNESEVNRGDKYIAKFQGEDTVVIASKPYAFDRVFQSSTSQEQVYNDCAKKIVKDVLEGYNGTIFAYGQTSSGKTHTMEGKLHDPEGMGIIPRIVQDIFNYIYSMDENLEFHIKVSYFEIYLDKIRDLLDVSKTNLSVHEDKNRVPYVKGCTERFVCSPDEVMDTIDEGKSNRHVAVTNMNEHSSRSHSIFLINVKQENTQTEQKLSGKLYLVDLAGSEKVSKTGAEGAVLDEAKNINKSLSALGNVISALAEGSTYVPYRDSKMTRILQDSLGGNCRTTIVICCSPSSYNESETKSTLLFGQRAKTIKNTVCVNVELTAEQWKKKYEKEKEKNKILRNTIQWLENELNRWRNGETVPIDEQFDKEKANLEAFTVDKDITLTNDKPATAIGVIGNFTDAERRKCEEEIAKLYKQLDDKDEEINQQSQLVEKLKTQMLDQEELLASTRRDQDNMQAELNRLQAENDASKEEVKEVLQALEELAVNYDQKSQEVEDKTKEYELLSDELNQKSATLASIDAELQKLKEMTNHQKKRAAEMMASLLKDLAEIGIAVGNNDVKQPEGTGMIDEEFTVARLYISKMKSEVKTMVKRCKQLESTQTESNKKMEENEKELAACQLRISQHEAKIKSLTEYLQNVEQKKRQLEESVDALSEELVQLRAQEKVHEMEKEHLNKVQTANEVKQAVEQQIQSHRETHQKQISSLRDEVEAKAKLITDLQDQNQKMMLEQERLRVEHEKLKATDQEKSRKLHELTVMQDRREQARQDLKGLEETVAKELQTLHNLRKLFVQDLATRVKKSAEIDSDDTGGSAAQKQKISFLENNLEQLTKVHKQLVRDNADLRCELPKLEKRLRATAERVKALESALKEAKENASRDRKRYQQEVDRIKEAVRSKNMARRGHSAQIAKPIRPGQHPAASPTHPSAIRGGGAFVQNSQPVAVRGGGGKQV

Mus musculus = assay: In vivo inhibition of KIF5B-RET V804M mutant fusion protein in BALB/c mouse implanted with KIF5B-RET V804M mutant fusion protein expressing mouse BaF3 cells assessed as reduction in SHC phosphorylation at 30 to 50 mg/kg, iv administered daily for 7 days and measured 4 hrs post last dose by Western blot analysis; format: functional, organism-based; details: dose 30-50 mg/kg, time 7.0 day
[2] = molecular target: T2, Coiled-coil domain-containing protein 6/Tyrosine-protein kinase receptor RET (Homo sapiens) (UniProt P07949+Q16204); assay: Inhibition of CCDC6-RET fusion protein (unknown origin) expressed in mouse BaF3 cells assessed as reduction in cell proliferation measured after 48 hrs by MTS assay; format: cell-based
T2 sequence (P07949 29-1114 limits assumed): as the sequence (P07949 29-1114 limits assumed) above
T2 sequence (Q16204 2-474 partner limits assumed): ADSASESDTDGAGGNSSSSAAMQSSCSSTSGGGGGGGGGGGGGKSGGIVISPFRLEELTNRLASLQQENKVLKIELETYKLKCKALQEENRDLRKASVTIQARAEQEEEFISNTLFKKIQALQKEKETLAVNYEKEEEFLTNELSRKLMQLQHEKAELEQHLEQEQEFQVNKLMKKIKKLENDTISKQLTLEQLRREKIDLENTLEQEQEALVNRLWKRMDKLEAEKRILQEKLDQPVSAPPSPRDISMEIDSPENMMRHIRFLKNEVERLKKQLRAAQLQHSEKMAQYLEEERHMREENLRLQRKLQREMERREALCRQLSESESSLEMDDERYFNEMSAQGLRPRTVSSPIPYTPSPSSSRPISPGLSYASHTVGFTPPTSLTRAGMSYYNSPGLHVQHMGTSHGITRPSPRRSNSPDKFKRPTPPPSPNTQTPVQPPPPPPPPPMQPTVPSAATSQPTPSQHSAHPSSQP

[3] = molecular target: T2, Coiled-coil domain-containing protein 6/Tyrosine-protein kinase receptor RET (Homo sapiens); assay: Inhibition of CCDC6-RET fusion protein in human LC-2-ad cells assessed as reduction in cell proliferation measured after 48 hrs by MTS assay; format: cell-based
[4] = Cytotoxicity against mouse BaF3 cells assessed as reduction in cell proliferation measured after 48 hrs by MTS assay; format: cell-based
BaF3 [5] = assay: Inhibition of CCDC6-RET V804M mutant fusion protein (unknown origin) expressed in mouse BaF3 cells assessed as reduction in ERK phosphorylation at 10 to 500 nM measured after 4 hrs by Western blot analysis; format: cell-based; details: Homo sapiens, dose 10-500 nM
[6] = Cmax in Sprague-Dawley rat at 10 mg/kg, po; format: ADME, organism-based; design: route oral, dose 10 mg/kg; details: in vivo
A-375 = assay: Antiproliferative activity against human A-375 cells measured after 48 hrs by MTS assay; format: functional
[7] = molecular target: Proto-oncogene tyrosine-protein kinase receptor Ret (Homo sapiens, UniProt P07949, V804M); assay: Inhibition of recombinant human N-terminal GST-HIS6 fused RET V804M mutant C-terminal domain (H658 to S1114 residues) expressed in Sf9 insect cells using TRK-C-derived peptide as substrate in presence of [33P]-ATP by filter binding assay
Chain of Proto-oncogene tyrosine-protein kinase receptor Ret (Homo sapiens, UniProt P07949, V804M) (P07949 29-1114 V804M limits assumed): as the sequence (P07949 29-1114 limits assumed) above, with V776M counted along it

[8] = Tmax in Sprague-Dawley rat at 10 mg/kg, po; format: ADME, organism-based; details: in vivo
[9] = molecular target: Proto-oncogene tyrosine-protein kinase receptor Ret (Homo sapiens, UniProt P07949); assay: Inhibition of RET in human LC-2-ad cells assessed as reduction in SHC phosphorylation; format: cell-based
Chain of Proto-oncogene tyrosine-protein kinase receptor Ret (Homo sapiens, UniProt P07949) (P07949 whole entry): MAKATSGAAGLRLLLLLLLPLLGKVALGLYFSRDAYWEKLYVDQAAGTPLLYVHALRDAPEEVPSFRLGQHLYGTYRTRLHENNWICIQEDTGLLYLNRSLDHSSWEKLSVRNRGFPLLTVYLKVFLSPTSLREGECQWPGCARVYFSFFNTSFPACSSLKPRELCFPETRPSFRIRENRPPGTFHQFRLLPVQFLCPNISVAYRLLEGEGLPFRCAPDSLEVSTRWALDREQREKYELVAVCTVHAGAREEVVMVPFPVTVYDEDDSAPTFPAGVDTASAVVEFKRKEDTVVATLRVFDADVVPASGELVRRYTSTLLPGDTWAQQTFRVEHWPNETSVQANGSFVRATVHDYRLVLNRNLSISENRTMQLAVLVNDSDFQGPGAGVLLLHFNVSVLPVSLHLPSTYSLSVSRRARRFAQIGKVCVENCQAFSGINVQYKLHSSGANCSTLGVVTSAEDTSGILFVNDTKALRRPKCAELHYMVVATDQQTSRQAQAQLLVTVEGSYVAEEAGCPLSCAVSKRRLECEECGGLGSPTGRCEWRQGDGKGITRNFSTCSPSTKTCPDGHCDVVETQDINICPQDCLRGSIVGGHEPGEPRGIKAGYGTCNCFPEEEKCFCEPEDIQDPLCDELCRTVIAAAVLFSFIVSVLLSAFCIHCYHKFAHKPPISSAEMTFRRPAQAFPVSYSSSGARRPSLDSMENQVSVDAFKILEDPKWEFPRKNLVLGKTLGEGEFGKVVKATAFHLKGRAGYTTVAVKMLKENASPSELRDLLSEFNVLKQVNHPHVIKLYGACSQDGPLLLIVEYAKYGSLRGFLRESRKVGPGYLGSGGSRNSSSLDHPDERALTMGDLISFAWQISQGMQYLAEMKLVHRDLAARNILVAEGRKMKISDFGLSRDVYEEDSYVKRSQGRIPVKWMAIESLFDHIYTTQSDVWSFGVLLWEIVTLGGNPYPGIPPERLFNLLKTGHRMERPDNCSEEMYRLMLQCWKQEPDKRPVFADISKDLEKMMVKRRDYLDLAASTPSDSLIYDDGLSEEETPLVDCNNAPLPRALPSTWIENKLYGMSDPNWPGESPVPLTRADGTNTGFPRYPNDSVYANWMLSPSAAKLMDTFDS

[10] = AUC (0 to infinity) in Sprague-Dawley rat at 10 mg/kg, po; format: ADME, organism-based; design: time infinity, route oral, dose 10 mg/kg; details: in vivo
BaF3 [11] = assay: Antitumor activity against KIF5B-RET fusion protein expressing mouse BaF3 cells implanted in iv dosed BALB/c mouse assessed as tumor growth inhibition administered once daily for 7 days; format: functional, organism-based; details: dose 30-50 mg/kg, time 7.0 day
[12] = molecular target: T1, Kinesin-1 heavy chain/ Tyrosine-protein kinase receptor RET (Homo sapiens); assay: Inhibition of KIF5B-RET fusion protein (unknown origin) expressed in mouse BaF3 cells assessed as reduction in […] measured after 4 hrs by Western blot analysis; format: cell-based
[13] = Half life in Sprague-Dawley rat at 1 mg/kg, iv; format: ADME, organism-based; details: in vivo
[14] = test system: Kinesin-1 heavy chain/ Tyrosine-protein kinase receptor RET (Homo sapiens), P07949+P33176 [V804M]; assay: Inhibition of KIF5B-RET V804M mutant fusion protein (unknown origin) expressed in mouse BaF3 cells assessed as reduction in AKT phosphorylation at 500 nM measured after 4 hrs by Western blot analysis; format: cell-based
BaF3 [15] = assay: Induction of apoptosis in KIF5B-RET V804M mutant fusion protein expressing mouse BaF3 cells implanted in BALB/c mouse assessed as increase in cleaved PARP level at 30 to 50 mg/kg, iv administered once daily for 7 days measured 4 hrs post last dose by Western blot analysis; format: functional, organism-based; details: dose 30-50 mg/kg, time 7.0 day
A549 = assay: Antiproliferative activity against human A549 cells measured after 48 hrs by MTS assay; format: functional
[16] = test system: Kinesin-1 heavy chain/ Tyrosine-protein kinase receptor RET (Homo sapiens), P07949+P33176 [V804M]; assay: Inhibition of KIF5B-RET V804M mutant fusion protein (unknown origin) expressed in mouse BaF3 cells assessed as reduction in ERK phosphorylation at 500 nM measured after 4 hrs by Western blot analysis; format: cell-based
BaF3 [17] = assay: Antitumor activity against KIF5B-RET V804M mutant fusion protein expressing mouse BaF3 cells implanted in iv dosed BALB/c mouse assessed as tumor growth inhibition administered once daily for 7 days; format: functional, organism-based; details: dose 30-50 mg/kg, time 7.0 day
[18] = molecular target: Coiled-coil domain-containing protein 6/Tyrosine-protein kinase receptor RET (Homo sapiens, UniProt P07949); assay: Inhibition of human N-terminal GST-HIS6 fused CCDC6-RET fusion protein (Met1 to Ser503 residues) expressed in Sf9 insect cells using TRK-C-derived peptide as substrate in presence of [33P]-ATP by filter binding assay
Chain of Coiled-coil domain-containing protein 6/Tyrosine-protein kinase receptor RET (P07949 whole entry, the tested form may be a part): as the sequence (P07949 whole entry) above
Chain of Coiled-coil domain-containing protein 6/Tyrosine-protein kinase receptor RET (Q16204 whole entry, further chain, the tested form may be a part): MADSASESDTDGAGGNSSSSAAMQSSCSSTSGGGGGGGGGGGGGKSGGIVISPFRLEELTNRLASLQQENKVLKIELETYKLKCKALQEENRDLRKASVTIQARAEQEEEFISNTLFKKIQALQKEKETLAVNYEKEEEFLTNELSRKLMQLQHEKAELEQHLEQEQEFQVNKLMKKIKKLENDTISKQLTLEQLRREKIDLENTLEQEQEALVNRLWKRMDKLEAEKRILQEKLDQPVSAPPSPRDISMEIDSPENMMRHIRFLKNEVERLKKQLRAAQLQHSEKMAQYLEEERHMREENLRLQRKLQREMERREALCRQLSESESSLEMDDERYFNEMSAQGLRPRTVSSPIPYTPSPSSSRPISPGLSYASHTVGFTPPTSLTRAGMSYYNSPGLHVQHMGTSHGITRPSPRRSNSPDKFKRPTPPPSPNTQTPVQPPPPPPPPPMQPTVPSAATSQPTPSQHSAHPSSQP

[19] = molecular target: Proto-oncogene tyrosine-protein kinase receptor Ret (Homo sapiens, UniProt P07949, M918T); assay: Inhibition of recombinant human N-terminal GST-HIS6 fused RET M918T mutant C-terminal domain (H658 to S1114 residues) expressed in Sf9 insect cells using TRK-C-derived peptide as substrate in presence of [33P]-ATP by filter binding assay
Chain of Proto-oncogene tyrosine-protein kinase receptor Ret (Homo sapiens, UniProt P07949, M918T) (P07949 29-1114 M918T limits assumed): as the sequence (P07949 29-1114 limits assumed) above, with M890T counted along it

BaF3 [20] = assay: Antitumor activity against KIF5B-RET fusion protein expressing mouse BaF3 cells implanted in BALB/c mouse assessed as tumor growth inhibition at 30 to 50 mg/kg, iv administered once daily for 7 days relative to control; format: functional; details: dose 30-50 mg/kg, time 7 day
[21] = Toxicity in BALB/c mouse implanted with KIF5B-RET fusion protein expressing mouse BaF3 cells assessed as body weight loss at 30 to 50 mg/kg, iv administered daily for 7 days measured daily during compound dosing; format: organism-based; details: in vivo, 168 h, dose 30-50 mg/kg, time 7 day
BaF3 [22] = assay: Inhibition of CCDC6-RET V804M mutant fusion protein (unknown origin) expressed in mouse BaF3 cells assessed as reduction in RET phosphorylation at 10 to 500 nM measured after 4 hrs by Western blot analysis; format: cell-based; details: Homo sapiens, dose 10-500 nM
BGC-823 = assay: Antiproliferative activity against human BGC-823 cells at 3.3 uM measured after 48 hrs by MTS assay; format: functional; details: read-out: GI
[23] = molecular target: T2, Coiled-coil domain-containing protein 6/Tyrosine-protein kinase receptor RET (Homo sapiens); assay: Inhibition of CCDC6-RET fusion protein (unknown origin) expressed in mouse BaF3 cells assessed as reduction in SHC phosphorylation at 10 to 500 nM measured after 4 hrs by Western blot analysis; format: cell-based; details: dose 10-500 nM
[24] = Cmax in Sprague-Dawley rat at 1 mg/kg, iv; format: ADME, organism-based; design: route intravenous, dose 1 mg/kg; details: in vivo
[25] = test system: Proto-oncogene tyrosine-protein kinase receptor Ret (Homo sapiens), P07949 [M918T]; assay: Binding affinity to wild-type human partial length RET M918T mutant (E713 to D1014 residues) expressed in bacterial expression system assessed as residual binding level at 1 uM by kinomescan method relative to control
Chain of Proto-oncogene tyrosine-protein kinase receptor Ret (Homo sapiens), P07949 [M918T] (P07949 whole entry M918T, the tested form may be a part): as the sequence (P07949 whole entry) above, with M918T counted along it

BaF3 [26] = assay: Induction of apoptosis in KIF5B-RET fusion protein expressing mouse BaF3 cells implanted in BALB/c mouse assessed as increase in cleaved caspase-3 level at 30 to 50 mg/kg, iv administered once daily for 7 days measured 4 hrs post last dose by H and E staining based immunohistochemical analysis; format: functional, organism-based; details: dose 30-50 mg/kg, time 7.0 day
[27] = molecular target: T2, Coiled-coil domain-containing protein 6/Tyrosine-protein kinase receptor RET (Homo sapiens); assay: Inhibition of CCDC6-RET fusion protein (unknown origin) expressed in mouse BaF3 cells assessed as reduction in AKT phosphorylation at 10 to 500 nM measured after 4 hrs by Western blot analysis; format: cell-based; details: dose 10-500 nM

Cc1ccc(C(=O)Nc2ccc(CN3CCN(C)CC3)c(C(F)(F)F)c2)cc1Oc1nc(-c2cccnc2)nc2[nH]ncc12
GI50 [1]: 17 nM | inhibition (Mus musculus): Dose-dependent effect | GI50 [2]: 9 nM | GI50 [3]: 38 nM | GI50 at 48 h [4]: 8030 nM | inhibition (BaF3 [5]): Active | Cmax [6]: 194 ng/mL | GI50 (A-375): 2950 nM | IC50 [7]: 7.86 nM | Tmax [8]: 0.75 h | inhibition [9]: Active | AUC(0-inf) [10]: 2340 ng·h/mL | Activity (BaF3 [11]): Dose-dependent effect | inhibition [12]: Dose-dependent effect | half-life [13]: 4.28 h | inhibition [14]: Active | Activity (BaF3 [15]): Active | GI50 (A549): 3390 nM | inhibition [16]: Active | Activity (BaF3 [17]): Dose-dependent effect | IC50 [18]: 5.43 nM | IC50 [19]: 8.42 nM | TGI (BaF3 [20]): >60% | Activity [21]: Non-Toxic | inhibition (BaF3 [22]): Active | inhibition of growth at 3.3 µM (BGC-823): 39% | inhibition [23]: Active | Cmax [24]: 6100 ng/mL | Activity [25]: 0% | Activity (BaF3 [26]): Active | inhibition [27]: Active
